Assay results from article PMC12608647, “Synthesis and Activity Evaluation of Novel Benzoxazepinone Derivatives as Potential Inhibitors of Glycogen Phosphorylase” (Molecules, 2025).
“Also recorded” adds a separate entry of the source.

Legend:
[1] = target: T1, rabbit muscle glycogen phosphorylase a (RMGPa) (Oryctolagus cuniculus, UniProt P00489); test: RMGPa inhibition assay (phosphate release from glucose-1-phosphate); type: biochemical; details: for IC50: mean ± SD of three determinations
T1 sequence (P00489 2-843 limits assumed): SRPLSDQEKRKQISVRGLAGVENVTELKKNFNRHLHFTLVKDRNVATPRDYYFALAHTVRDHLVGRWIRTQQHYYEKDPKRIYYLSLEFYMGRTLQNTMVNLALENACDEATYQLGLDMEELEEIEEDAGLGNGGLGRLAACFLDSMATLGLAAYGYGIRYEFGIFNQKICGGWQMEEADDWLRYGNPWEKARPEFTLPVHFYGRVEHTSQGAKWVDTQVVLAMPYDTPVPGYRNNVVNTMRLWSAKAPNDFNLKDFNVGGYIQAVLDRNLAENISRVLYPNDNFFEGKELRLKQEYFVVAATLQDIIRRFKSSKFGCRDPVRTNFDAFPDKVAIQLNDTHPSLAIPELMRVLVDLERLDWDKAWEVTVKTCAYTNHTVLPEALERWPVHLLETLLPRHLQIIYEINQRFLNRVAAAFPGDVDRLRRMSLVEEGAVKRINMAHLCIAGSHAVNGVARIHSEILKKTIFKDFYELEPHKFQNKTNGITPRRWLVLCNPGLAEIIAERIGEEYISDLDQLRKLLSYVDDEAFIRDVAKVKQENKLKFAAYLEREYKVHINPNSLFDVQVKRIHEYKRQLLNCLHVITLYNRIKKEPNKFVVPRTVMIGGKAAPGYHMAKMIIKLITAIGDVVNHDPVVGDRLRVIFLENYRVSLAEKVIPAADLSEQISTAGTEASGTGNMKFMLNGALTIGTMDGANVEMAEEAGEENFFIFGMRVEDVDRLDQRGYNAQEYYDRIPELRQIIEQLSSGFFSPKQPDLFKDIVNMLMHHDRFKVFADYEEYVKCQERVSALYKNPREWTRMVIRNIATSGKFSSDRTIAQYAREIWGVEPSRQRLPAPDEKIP
Procedure: The synthesized compounds were evaluated for their inhibitory activity against rabbit muscle glycogen phosphorylase a (RMGPa) according to a previously reported protocol. PSN-357, a compound in phase II clinical trials, was used as a positive control. We also used the parent structure 5d as a positive control (Figure 2).
The inhibitory activity of the test compounds against RMGPa was evaluated using a microplate reader (Bio-Rad Laboratories, Berkeley, CA, USA) according to a previously described method. Briefly, RMGPa activity was determined by measuring the release of phosphate from glucose-1-phosphate, which reflects the direction of glycogen synthesis. Each test compound was dissolved in DMSO and diluted to different concentrations for IC50 determination. The enzyme was added to 100 μL reaction mixtures in 96-well Costar microplates (Corning Inc., Corning, NY, USA) containing 50 mM HEPES (pH 7.2), 100 mM potassium chloride (KCl), 2.5 mM magnesium chloride (MgCl2), 0.5 mM glucose-1-phosphate, 1 mg/mL glycogen, and the test compounds. After incubation at 22 °C for 25 min, 150 μL of a solution containing 10 mg/mL ammonium molybdate and 0.38 mg/mL malachite green was added. The absorbance of phosphate was measured at 620 nm. IC50 values were estimated by fitting the inhibition data to a dose–response curve using a logistic regression equation.

HL-7702 cells = test: Glycogenolysis inhibition assay in HL-7702 cells; type: cell-based, human; details: for IC50: Homo sapiens, L02, 1 h, HL-7702 cells, 0.3 nM glucagon, 60 min, mean ± SD of three determinations
Procedure: To evaluate the effects of the synthesized compounds on glycogen degradation, compounds 8a–8i were subjected to a glycogenolysis assay in HL-7702 cells.
The inhibitory effect on hepatic glycogenolysis was quantitatively assessed by colorimetry using a microplate reader (Bio-Rad Laboratories) and anthrone reagent (Sigma-Aldrich, St. Louis, MO, USA), as previously described. Primary human liver HL-7702 cells (National Collection of Authenticated Cell Cultures) were treated with test compounds or DMSO solvent (final concentration, 0.10%) and then co-incubated with 0.3 nM glucagon for 60 min. After termination of the reaction by centrifugation, the cells were digested with 30% potassium hydroxide, and the glycogen content was determined. When culturing cells to concentration, a 6-well plate is used for cell culture, with a cell seeding density of 10^6 cells per well. The condition is set at a constant temperature of 37 degrees Celsius. The repetition count is three times. The activity assessment criteria were based on the positive drug psn-357 and the parent nuclear compound 5d. IC50 values were estimated by fitting the inhibition data to a logistic regression equation to generate dose–response curves. Analysis was conducted using SPSS Statistics 17.0. In vitro data are presented as mean ± SD, and in vivo data as mean ± SEM. Differences between two groups were assessed using Student’s t-test, and comparisons among three or more groups using ANOVA. A p-value < 0.05 was considered significant.

IC50 [1] [µM]	RMGPa inhibitory activity relative to PSN-357 ([1]; versus PSN-357)	SMILES	IC50 (HL-7702 cells) [µM]	potency relative to parent structure 5d in HL-7702 cells (HL-7702 cells; versus 5d)	potency relative to PSN-357 in HL-7702 cells (inhibition of glycogen degradation) (HL-7702 cells; versus PSN-357)
0.88 ± 0.03		CCCCCOC1COc2ccc(NC(=O)c3cc4cc(Cl)ccc4[nH]3)cc2C(=O)N1 (centres unmarked) [Compound 8e, 5-chloro-N-(5-oxo-3-(pentyloxy)-2,3,4,5-tetrahydrobenzo[f][1,4]oxazepin-7-yl)-1H-indole-2-carboxamide]	15.4 ± 0.89		
0.25 ± 0.05		O=C(Nc1ccc2c(c1)C(=O)NCCO2)c1cc2cc(Cl)ccc2[nH]1 [Compound 5d, reference compound]	3.75 ± 2.67		
1.61 ± 0.41		CCOC1COc2ccc(NC(=O)c3cc4cc(Cl)ccc4[nH]3)cc2C(=O)N1 (centres unmarked) [Compound 8b, 5-chloro-N-(3-ethoxy-5-oxo-2,3,4,5-tetrahydrobenzo[f][1,4]oxazepin-7-yl)-1H-indole-2-carboxamide]	6.77 ± 0.93		
0.62 ± 0.16		O=C(Nc1ccc2c(c1)C(=O)NC(OCc1ccccc1)CO2)c1cc2cc(Cl)ccc2[nH]1 (centres unmarked) [Compound 8g, N-(3-(benzyloxy)-5-oxo-2,3,4,5-tetrahydrobenzo[f][1,4]oxazepin-7-yl)-5-chloro-1H-indole-2-carboxamide]	1.51 ± 0.21	twice	threefold increase; also recorded: three times greater
		O=C(N[C@@H](Cc1ccc(F)cc1)C(=O)N1CCC(O)CC1)c1cc2cc(Cl)ncc2[nH]1 [PSN-357, reference compound]	4.94 ± 0.28		
0.7 ± 0.55		CC(C)CCOC1COc2ccc(NC(=O)c3cc4cc(Cl)ccc4[nH]3)cc2C(=O)N1 (centres unmarked) [Compound 8h, 5-chloro-N-(3-(isopentyloxy)-5-oxo-2,3,4,5-tetrahydrobenzo[f][1,4]oxazepin-7-yl)-1H-indole-2-carboxamide]	6.99 ± 0.99		
0.21 ± 0.05	twice as strong	COC1COc2ccc(NC(=O)c3cc4cc(Cl)ccc4[nH]3)cc2C(=O)N1 (centres unmarked) [Compound 8a, 5-chloro-N-(3-methoxy-5-oxo-2,3,4,5-tetrahydrobenzo[f][1,4]oxazepin-7-yl)-1H-indole-2-carboxamide]	8.51 ± 3.99		
5.31 ± 0.62		COCCOC1COc2ccc(NC(=O)c3cc4cc(Cl)ccc4[nH]3)cc2C(=O)N1 (centres unmarked) [Compound 8i, 5-chloro-N-[3-(2-methoxyethoxy)-5-oxo-2,3,4,5-tetrahydrobenzo[f][1,4]oxazepin-7-yl]-1H-indole-2-carboxamide]	> 15.4		
		CCCOC1COc2ccc(NC(=O)c3cc4cc(Cl)ccc4[nH]3)cc2C(=O)N1 (centres unmarked) [Compound 8c, 5-chloro-N-(5-oxo-3-propoxy-2,3,4,5-tetrahydrobenzo[f][1,4]oxazepin-7-yl)-1H-indole-2-carboxamide]	5.33 ± 1.39		
0.29 ± 0.1		CCCCCCOC1COc2ccc(NC(=O)c3cc4cc(Cl)ccc4[nH]3)cc2C(=O)N1 (centres unmarked) [Compound 8f, 5-chloro-N-(3-(hexyloxy)-5-oxo-2,3,4,5-tetrahydrobenzo[f][1,4]oxazepin-7-yl)-1H-indole-2-carboxamide]	7.67 ± 1.98		

SMILES	IC50 [1] [µM]	RMGPa inhibitory activity relative to PSN-357 ([1]; versus PSN-357)	IC50 (HL-7702 cells) [µM]	potency relative to parent structure 5d in HL-7702 cells (HL-7702 cells; versus 5d)	potency relative to PSN-357 in HL-7702 cells (inhibition of glycogen degradation) (HL-7702 cells; versus PSN-357)
CCCCOC1COc2ccc(NC(=O)c3cc4cc(Cl)ccc4[nH]3)cc2C(=O)N1 (centres unmarked) [Compound 8d, N-(3-butoxy-5-oxo-2,3,4,5-tetrahydrobenzo[f][1,4]oxazepin-7-yl)-5-chloro-1H-indole-2-carboxamide]	0.71 ± 0.25		9.81 ± 1.39		
